From patent publication US20250188033A1, “INHIBITOR OF REPLICATION PROTEIN A1 OF TRYPANOSOMA BRUCEI AND METHOD OF USE THEREOF” (Research Foundation of the City University of New York, published 2025) come the findings set out here.

The test system of this assay is Trypanosoma brucei. The experiment in a line: ALAMARBLUE cell viability / growth assay of T. brucei cells. The format is cell-based. The following applies: T. brucei, 72 hours, normalized to DMSO control. On the procedure: To determine cell growth rate, WT and two TbRPA1 RNAi KD strains (KD1 and KD2) were seeded at a density of 1×10^5 cells/ml and cultured with or without tetracycline for the induction of RNAi. Cells were counted every 12 hours for 2 days. To determine the viability of TbRPA1-depleted cells, ALAMARBLUE® assay (Thermo Fisher, an established colorimetric technique that detects metabolically active cells) was used. Cells from each time point were incubated with ALAMARBLUE® dye for 4-6 hours and percentage of live cells was determined by measuring resorufin converted from resazurin by reducing environment of live cells. Synergy H1 microplate reader (BioTek) was used with 560/590 nm (excitation/emission) filter settings and Relative Fluorescence Unit (RFU) values were obtained. The percentage of viable cells were calculated from the RFU values.
The initial assessment of JC-229's inhibitory effect on T. brucei cell growth was performed at 50 μM concentration. Trypanosome cells were seeded at 1×10^3 cells/ml density in 180 μl in a 96-well culture plate in triplicate. These cells were incubated with 50 μM JC-229 for 24, 48, and 72 hours. DMSO was used as a vehicle control at 0.0075%. JC-229-treated culture and control cultures were analyzed with the ALAMARBLUE® dye as described above.
To obtain the EC50 value of JC-229, T. brucei cells were seeded at 1×10^3 cells/ml density in 180 μl in a 96-well culture plate in triplicate. These cells were incubated for 72 hours with increasing concentrations of JC-229, (0.5 μM to 50 μM) and cell viability was determined using the ALAMARBLUE® dye as described above.
Trypanosoma brucei cytotoxicity of JC-229 and analogs were measured using ALAMARBLUE® assay (Rampersad, S. N. Multiple applications of ALAMARBLUE® as an indicator of metabolic function and cellular health in cell viability bioassays. Sensors (Basel) 12, 12347-12360 (2012). Trypanosome cells were seeded at 1×10^3 cells/ml density in 180 μl in a 96-well culture plate in triplicate. These cells were incubated with indicated concentration of JC compounds for 72 hours. DMSO was used as a vehicle control at 0.0075%. JC compound-treated cultures were then incubated with ALAMARBLUE® dye for 4-6 hours and percentage of live cells was determined using Synergy H1 microplate reader (BioTek) with 560/590 nm (excitation/emission) filter settings and Relative Fluorescence Unit (RFU) values were obtained. The percentage of viable cells were calculated from the RFU values by normalizing to DMSO treated control. In one embodiment, the inhibitor is characterized in that it provides at least 50%, at least 80% or at least 90% inhibition at a concentration of 5 μM when tested in accordance with the above conditions.
In general terms: Resazurin is reduced to fluorescent resorufin, in cell work by metabolically active cells.

As for `Cc1ccc(C(=O)Nc2ccc(Cl)c(Cl)c2)cc1S(=O)(=O)Nc1cc[nH]n1` [JC-902], the “% Inhibition @2 μM” value was 14% and the “% Inhibition @10 μM” value came to 56%.

For the compound `Cc1ccc(C(=O)Nc2ccc(Cl)c(Cl)c2)cc1S(=O)(=O)NCc1nc2c(F)c(F)ccc2[nH]1.O=C(O)C(F)(F)F` [JC-903], the “% Inhibition @2 μM” value stood at 11% and the “% Inhibition @10 μM” value is 37%.

`Cc1ccc(C(=O)Nc2ccc(Cl)c(Cl)c2)cc1S(=O)(=O)n1c(CN)nc2ccccc21.O=C(O)C(F)(F)F` [JC-904]: the “% Inhibition @2 μM” value was found to be 14% and the “% Inhibition @10 μM” value is recorded as 2%.

Consider `Cc1ccc(C(=O)Nc2ccc(Cl)c(Cl)c2)cc1S(=O)(=O)NCc1nc2ccccc2[nH]1.O=C(O)C(F)(F)F` [JC-905], for which the “% Inhibition @2 μM” value is reported as 8% and the “% Inhibition @10 μM” value was found to be 10%.

Take `Cc1ccc(C(=O)Nc2ccc(Cl)c(Cl)c2)cc1S(=O)(=O)N1CCC(N)CC1.O=C(O)C(F)(F)F` [JC-906]: the “% Inhibition @2 μM” value is 23%, the “% Inhibition @5 μM” value was determined as 100% and the “% Inhibition @10 μM” value amounted to 100%.

In the case of `O=C(Nc1ccc(Cl)c(Cl)c1)c1ccc(O)c(S(=O)(=O)Nc2ccc(Cl)c(Cl)c2)c1` [JC-907], the “% Inhibition @2 μM” value is 12% and the “% Inhibition @10 μM” value worked out at 5%.

`Cc1ccc(C(=O)Nc2ccc(Cl)c(Cl)c2)cc1S(=O)(=O)NCCCc1ccccc1` [JC-908]: the “% Inhibition @2 μM” value was found to be 18% and the “% Inhibition @10 μM” value came out at 62%.

For `CC(=O)c1ccc(NS(=O)(=O)c2cc(C(=O)Nc3ccc(Cl)c(Cl)c3)ccc2C)cc1` [JC-909], the “% Inhibition @2 μM” value is 15% and the “% Inhibition @10 μM” value was found to be 17%.

For the compound `Cc1ccc(C(=O)Nc2ccc(Cl)c(Cl)c2)cc1S(=O)(=O)C1CCN(C(=O)OC(C)(C)C)CC1` [JC-910], the “% Inhibition @2 μM” value is 18% and the “% Inhibition @10 μM” value came out at 73%.

`Cc1ccc(C(=O)Nc2ccc(Cl)c(Cl)c2)cc1S(=O)(=O)C1CCNCC1.O=C(O)C(F)(F)F` [JC-911]: the “% Inhibition @2 μM” value came to 11% and the “% Inhibition @10 μM” value was determined as 25%.

Consider `Cc1ccc(C(=O)Nc2ccc(Cl)c(Cl)c2)cc1S(=O)(=O)Nc1ccc(O)cc1` [JC-912], for which the “% Inhibition @2 μM” value was −5% and the “% Inhibition @10 μM” value was found to be 58%.

`Cc1ccc2c(NS(=O)(=O)c3cc(C(=O)Nc4ccc(Cl)c(Cl)c4)ccc3C)cccc2n1` [JC-913]: the “% Inhibition @2 μM” value is 2% and the “% Inhibition @10 μM” value is 6%.

For `Cc1ccc(C(=O)Nc2ccc(Cl)c(Cl)c2)cc1S(=O)(=O)Nc1cnc2ccccc2c1` [JC-914], the “% Inhibition @2 μM” value was −7% and the “% Inhibition @10 μM” value is −3%.

In the case of `Cc1ccc(C(=O)Nc2ccc(Cl)c(Cl)c2)cc1S(=O)(=O)Nc1ccncc1` [JC-915], the “% Inhibition @2 μM” value is recorded as −11% and the “% Inhibition @10 μM” value is recorded as 6%.

In the case of `Cc1ccc(C(=O)Nc2ccc(Cl)c(Cl)c2)cc1S(=O)(=O)N1CCN(C)CC1` [JC-916], the “% Inhibition @2 μM” value is on record as −2% and the “% Inhibition @10 μM” value is 36%.

In the case of `Cc1ccc(C(=O)Nc2ccc(Cl)c(Cl)c2)cc1S(=O)(=O)NCCNC(=O)OC(C)(C)C` [JC-917], the “% Inhibition @2 μM” value is reported as −14% and the “% Inhibition @10 μM” value worked out at 73%.

In the case of `Cc1ccc(C(=O)Nc2ccc(Cl)c(Cl)c2)cc1S(=O)(=O)NCCN.O=C(O)C(F)(F)F` [JC-918], the “% Inhibition @2 μM” value was −20% and the “% Inhibition @10 μM” value is given as 56%.

On to `CC(=O)NCCNS(=O)(=O)c1cc(C(=O)Nc2ccc(Cl)c(Cl)c2)ccc1C` [JC-919], for which the “% Inhibition @2 μM” value is reported as −10% and the “% Inhibition @10 μM” value is reported as 18%.

`Cc1ccc(C(=O)Nc2ccc(Cl)c(Cl)c2)cc1S(=O)(=O)NCCNC(=O)c1ccccc1` [JC-920]: the “% Inhibition @2 μM” value is reported as −5% and the “% Inhibition @10 μM” value is −9%.

On to `Cc1ccc(C(=O)Nc2ccc(Cl)c(Cl)c2)cc1S(=O)(=O)NCCNC(=O)[C@H](N)Cc1ccccc1` [JC-922], for which the “% Inhibition @2 μM” value is recorded as −7% and the “% Inhibition @10 μM” value was found to be 19%.

`Cc1ccc(C(=O)Nc2ccc(Cl)c(Cl)c2)cc1S(=O)(=O)NCCNS(=O)(=O)c1ccc(Br)cc1` [JC-923]: the “% Inhibition @2 μM” value is 2%, the “% Inhibition @5 μM” value is on record as 100.9% and the “% Inhibition @10 μM” value was 100%.

In the case of `Cc1ccc(C(=O)Nc2ccc(Cl)c(Cl)c2)cc1S(=O)(=O)C1CCC(NC(=O)OC(C)(C)C)CC1` (stereo not drawn) [JC-924], the “% Inhibition @2 μM” value is −2%, the “% Inhibition @5 μM” value amounted to 99.4% and the “% Inhibition @10 μM” value is listed as 100%.

`Cc1ccc(C(=O)Nc2ccc(Cl)c(Cl)c2)cc1S(=O)(=O)C1CCC(N)CC1` (stereo not drawn) [JC-925]: the “% Inhibition @2 μM” value is reported as −8% and the “% Inhibition @10 μM” value worked out at 17%.

Consider `Cc1ccc(C(=O)Nc2ccc(Cl)c(Cl)c2)cc1S(=O)(=O)C1CCC(NC(=O)Cc2ccccc2)CC1` (stereo not drawn) [JC-926], for which the “% Inhibition @2 μM” value is listed as −8%, the “% Inhibition @5 μM” value is on record as 28.9% and the “% Inhibition @10 μM” value is 100%.

With `Cc1ccc(C(=O)Nc2ccc(Cl)c(Cl)c2)cc1S(=O)(=O)C1CCC(NC(=O)c2ccccc2)CC1` (stereo not drawn) [JC-927], the “% Inhibition @2 μM” value was determined as 0%, the “% Inhibition @5 μM” value was determined as 42.4% and the “% Inhibition @10 μM” value was found to be 100%.

For the compound `Cc1ccc(C(=O)Nc2ccc(Cl)c(Cl)c2)cc1S(=O)(=O)N1CCCC(NC(=O)OC(C)(C)C)C1` (stereo not drawn) [JC-928], the “% Inhibition @2 μM” value is on record as 15%, the “% Inhibition @5 μM” value is given as 99.6% and the “% Inhibition @10 μM” value is on record as 100%.

As to `Cc1ccc(C(=O)Nc2ccc(Cl)c(Cl)c2)cc1S(=O)(=O)N1CCCC(N)C1.O=C(O)C(F)(F)F` (stereo not drawn) [JC-929], the “% Inhibition @2 μM” value worked out at 5%, the “% Inhibition @5 μM” value is on record as 99.7% and the “% Inhibition @10 μM” value is reported as 100%.

As for `Cc1ccc(C(=O)Nc2ccc(Cl)c(Cl)c2)cc1S(=O)(=O)N1CCCC(NC(=O)Cc2ccccc2)C1` (stereo not drawn) [JC-930], the “% Inhibition @2 μM” value is 4%, the “% Inhibition @5 μM” value is recorded as 99.7% and the “% Inhibition @10 μM” value was found to be 100%.

`Cc1ccc(C(=O)Nc2ccc(Cl)c(Cl)c2)cc1S(=O)(=O)N1CCCC(NC(=O)c2ccccc2)C1` (stereo not drawn) [JC-931]: the “% Inhibition @2 μM” value is listed as 3%, the “% Inhibition @5 μM” value was 98.5% and the “% Inhibition @10 μM” value was 100%.

As for `Cc1ccc(C(=O)Nc2ccc(Cl)c(Cl)c2)cc1S(=O)(=O)NCCCNC(=O)OC(C)(C)C` [JC-932], the “% Inhibition @2 μM” value is recorded as 7% and the “% Inhibition @10 μM” value stood at 73%.

As for `Cc1ccc(C(=O)Nc2ccc(Cl)c(Cl)c2)cc1S(=O)(=O)NCCCN.O=C(O)C(F)(F)F` [JC-933], the “% Inhibition @2 μM” value is recorded as 5% and the “% Inhibition @10 μM” value worked out at 60%.

For `Cc1ccc(C(=O)Nc2ccc(Cl)c(Cl)c2)cc1S(=O)(=O)NCCCNC(=O)Cc1ccccc1` [JC-934], the “% Inhibition @2 μM” value is on record as 11% and the “% Inhibition @10 μM” value is reported as 34%.

For `Cc1ccc(C(=O)Nc2ccc(Cl)c(Cl)c2)cc1S(=O)(=O)NCCCNC(=O)c1ccccc1` [JC-935], the “% Inhibition @2 μM” value was determined as 3% and the “% Inhibition @10 μM” value stood at 19%.

Consider `Cc1ccc(C(=O)Nc2ccc(Cl)c(Cl)c2)cc1S(=O)(=O)C1CCCNC1.O=C(O)C(F)(F)F` (stereo not drawn) [JC-951], for which the “% Inhibition @2 μM” value is 29% and the “% Inhibition @5 μM” value amounted to 100%.

For `Cc1ccc(C(=O)Nc2ccc(Cl)c(Cl)c2)cc1S(=O)(=O)NCCNC(=O)Cc1ccccc1` [JC-953], the “% Inhibition @2 μM” value was −34% and the “% Inhibition @5 μM” value stood at 32%.

For the compound `Cc1ccc(C(=O)Nc2ccc(Cl)c(Cl)c2)cc1S(=O)(=O)C1CCCC(NC(=O)OC(C)(C)C)C1` (stereo not drawn) [JC-954], the “% Inhibition @2 μM” value was 10% and the “% Inhibition @5 μM” value turned out to be 35%.

For `Cc1ccc(C(=O)Nc2ccc(Cl)c(Cl)c2)cc1S(=O)(=O)C1CCCC(N)C1` (stereo not drawn) [JC-955], the “% Inhibition @2 μM” value worked out at 25% and the “% Inhibition @5 μM” value was 100%.

Consider `Cc1ccc(C(=O)Nc2ccc(Cl)c(Cl)c2)cc1S(=O)(=O)NC1CC(NC(=O)OC(C)(C)C)C1` (stereo not drawn) [JC-956], for which the “% Inhibition @2 μM” value is reported as −32% and the “% Inhibition @5 μM” value is listed as 19%.

As for `Cc1ccc(C(=O)Nc2ccc(Cl)c(Cl)c2)cc1S(=O)(=O)NC1CC(N)C1` (stereo not drawn) [JC-957], the “% Inhibition @2 μM” value is −30% and the “% Inhibition @5 μM” value was determined as 84%.
